Assay results: article PMC9399069, “Imaging PARP with [^18F]rucaparib in pancreatic cancer models” (European Journal of Nuclear Medicine and Molecular Imaging, 2022)

Columns and labels:
Format in all cases: cell-based, human
[1] = tested on: PSN1 cells; test: Uptake and retention of radiolabelled PARP inhibitors in PSN1 cells treated with DNA-damaging reagents; conditions: 100 μM, 3 h, retention at 3 h
Description: (§1) AsPC1 (1 × 10^5 cells/well) and PSN1 cells (7.5 × 10^4 cells/well) were exposed to methyl methanesulfonate (MMS) or temozolomide (TMZ) (100 μM, in a total of 270 μL growth medium) for 3 h at 37 °C. Additionally, [^18F]rucaparib (500 kBq, 3.6 GBq/μmol; [^TotalF]rucaparib final concentration: 301 nM) or [^18F]olaparib (400 kBq, 8.5 GBq/μmol; [^TotalF]olaparib final concentration: 300 nM) was added, and the cells were incubated at 37 °C for 30 min. Cell culture medium was removed, and cells were washed with PBS. For cell retention, fresh medium (300 μL) was added to the cells. Cells were then further incubated at 37°C for 3 h. Cell culture medium was removed, and the amount of ^18F in the cell lysates was measured as above. Protein expression of the cells after DNA-damaging treatments (or PARP inhibitors 10 μM) was performed using flow cytometry as above.

[2] = tested on: PSN1 cells; test: Protein expression by flow cytometry after PARP inhibitors or DNA-damaging reagents, PSN1 cells; conditions: 100 μM, 3 h; for Upregulation of PARP proteins: flow cytometry
Description: (§2) Relative expression of PARP1, 2 and 3, ALDH2 and IMPDH2 was determined by flow cytometry. Cells (1 × 10^6 cells/well) were seeded in 96-well plates in growth medium, washed with FACS buffer (PBS, 2% FBS, 1 mM EDTA, 0.1% NaN3) and centrifuged at 500×g for 5 min. Immunostaining was performed using the Foxp3/transcription factor staining buffer set (eBioscience^TM, USA). Intracellular staining was conducted in permeabilisation buffer for 30 min at 4 °C in the dark using the following antibodies: AF488-conjugated anti-PARP-1 (1:100; sc-80070), AF594-conjugated anti-PARP-2 (1:100; sc-393310), anti-PARP-3 (1:100; sc-390771) or anti-PARP-tankyrase-1/2 (1:100; sc-365897) from Santa Cruz Biotechnology Inc. (USA), AF488-conjugated anti-IMPDH2 (1:500; ab-200770) from Abcam plc. (UK) and AF488-conjugated anti-ALDH2 (1:100, ABIN6817568) from Antibodies-online GmbH (UK). Fixable viability dye ef780 (1:4000; eBioscience^TM; 65-0865-14) was used for live and dead cells discrimination. Fixation of immunostained cells was performed for 15 min at room temperature. Flow cytometry was conducted on the CytoFLEX benchtop flow cytometer (Beckman Coulter, USA), with appropriate lasers and filters, positive and negative controls. Data were analysed using FlowJo^TM (Tree Star Inc., BD Biosciences, USA).
as §1

[3] = tested on: AsPC1 cells; test: Protein expression by flow cytometry after PARP inhibitors or DNA-damaging reagents, AsPC1 cells; conditions: 100 μM, 3 h; for Upregulation of PARP proteins: flow cytometry; for γH2AX expression: not statistically significant in AsPC1 cells
Description: as §2, §1

[4] = tested on: AsPC1 cells; test: Uptake and retention of radiolabelled PARP inhibitors in AsPC1 cells treated with DNA-damaging reagents; conditions: 100 μM, 3 h, retention at 3 h
Description: as §1

| SMILES | Cell association and retention of [TotalF]rucaparib and [TotalF]olaparib after exposure to DNA-damaging reagent [1] | γH2AX expression [2] | Upregulation of PARP proteins [2] [%] | Upregulation of PARP proteins [3] [%] | γH2AX expression [3] | Cell association and retention of [TotalF]rucaparib and [TotalF]olaparib after exposure to DNA-damaging reagent [4] |
| --- | --- | --- | --- | --- | --- | --- |
| COS(C)(=O)=O [MMS, methyl methanesulfonate] | increased | increasing trend | < 10 | < 10 | increasing trend | increased |
| Cn1nnc2c(C(N)=O)ncn2c1=O [TMZ, temozolomide] | increased | increasing trend | < 10 | < 10 | increasing trend | increased |
